Results reported in patent US20020055495A1, “Two-component anti-emetic composition” (priority 2000, published 2002).
Read-outs that look alike come from different tables or passages of the source.

Experiments:
[1] = molecular target: dopamine D2 receptor (Homo sapiens, UniProt P14416); experiment: dopamine D2 receptor binding, metoclopramide alone and with dexamethasone added
Method: Metoclopramide is an inhibitor of the dopamine D2 receptor which negatively effects motor function through D2 blockade causing extrapyramidal signs and symptoms (EPS). The effect of the addition of a steroid, such as dexamethasone, on metoclopramide's binding affinity at the dopamine D2 receptor is studied. […] Dexamethasone is then added in relative concentrations based on weight to achieve the following results: […]

[2] = cited from earlier work
[3] = test system: male Spargue-Dawley rats; experiment: locomotor depressant effect in rats (center distance traveled, Digiscan activity monitors); format: in vivo, rat; conditions: metaclopramide 4 mg/kg s.c., rats pretreated with saline, 30 minutes recording
Method: In this example, the effect of the addition of a steroid, such as dexamethasone, on metoclopramide's locomotor depressant effects is studied. Forty-eight male Spargue-Dawley rats (250-350 g) are used for this experiment. The rats are housed in pairs and allowed free access to food and water and are not handled except for cage changes and weighing prior to testing. All experimental procedures are performed during the rat's nocturnal cycle, in dimly lit behavior rooms, except that the rats are moved to adjacent behavior rooms 30 minutes prior to testing. Eight rats are tested at a time, four rats from each condition are tested together and groups are randomly chosen to control for order sequence effects. The locomotor experiments are carried out in clear, acrylic 41×41×30 cm test chambers inside Ominitech Digiscan activity monitors (Accuscan, Inc.). Each monitor uses two arrays of infrared photocell beams (8×8 photocells, model RXYZCM-8) to detect several parameters of the rat's movement both horizontally and vertically. Data is collected in 5-min bins during testing. Dexamethasone (Sigma) is dissolved in deionized water at concentrations of 0.16, 0.4, 0.8, and 4 mg/ml. […] Each rat is then immediately placed into a locomotor testing box and the data is recorded for 30 minutes (5-min bins). The data is analyzed with a one way ANOVA for the dependent variable, center distance traveled. […]

[4] = test system: nausea and emesis; conditions: cited from earlier work

Sequence of dopamine D2 receptor (P14416 whole entry, species assumed): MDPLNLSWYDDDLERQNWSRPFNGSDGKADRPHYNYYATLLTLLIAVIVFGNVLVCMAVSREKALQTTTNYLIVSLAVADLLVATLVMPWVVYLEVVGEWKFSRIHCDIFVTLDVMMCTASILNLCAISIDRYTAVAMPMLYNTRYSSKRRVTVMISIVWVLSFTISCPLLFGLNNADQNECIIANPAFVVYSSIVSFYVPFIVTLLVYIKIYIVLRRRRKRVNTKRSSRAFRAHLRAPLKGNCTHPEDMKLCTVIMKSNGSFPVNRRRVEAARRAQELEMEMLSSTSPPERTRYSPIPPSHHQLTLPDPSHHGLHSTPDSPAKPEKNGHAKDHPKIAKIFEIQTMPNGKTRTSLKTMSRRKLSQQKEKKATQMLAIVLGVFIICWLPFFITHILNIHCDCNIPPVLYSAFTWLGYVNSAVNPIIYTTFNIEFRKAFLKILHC

Q: Which “% Inhibition D2 Binding” value ([1]; MTC 8.6 nM, alone or with DEX (0.7-17.2 nM) added at the stated DEX:MTC weight ratio) does the source give for `CCN(CC)CCNC(=O)c1cc(Cl)c(N)cc1OC` [metoclopramide] here?
A: Its value is 50%.

Q: What about the IC50 ([1]; metoclopramide alone, read-out: IC50 (the concentration that inhibits 50% of dopamine D2 binding)) of the same compound?
A: The IC50 was 8.6 nM.

Q: What about the “solubility in aqueous solution” value ([2]; acid addition salt form) of the same compound?
A: The value was “freely soluble in aqueous solution”.

Q: What about the solubility in water ([2]; free base form) of the same compound?
A: The solubility in water was “quite water insoluble”.

Q: And the “center distance traveled (locomotor depressant effect)” value [3]?
A: Its value is “significantly reduces”.

Q: With `Cc1nccn1CC1CCc2c(c3ccccc3n2C)C1=O` (stereo not shown) [ondansetron] as the compound, how does the anti-emetic efficacy ([4]; Soukop et al. 1992, repeated chemotherapy for breast cancer) read?
A: Its anti-emetic efficacy is “significantly superior than MTC”.

Q: With `CN1C2CCCC1CC(NC(=O)c1nn(C)c3ccccc13)C2` (stereo not shown) [oral granisetron, granisetron] as the compound, how does the anti-emetic efficacy ([4]; Heron et al. 1994, Chevallier 1993, cisplatin-induced emesis) read?
A: Its anti-emetic efficacy is “superior to MTC”.
